Experiments:
CACO-2 cells = assay: CACO-2 cell apparent permeability (Papp), BBB model; conditions: CACO-2 monolayers in Transwells, 30 minutes at 37° C., donor to acceptor
Procedure: Culturing of CACO-2 cells and Determination of Apparent Permeability (Papp) Values:
The seeding of 12 mm Transwells was as follows for CACO-2. Flasks of confluent cultures were trypsinsed and cells were carefully resuspended, making sure there are no clumps or air bubbles. 1.5 ml of tissue culture medium was placed in the bottom (acceptor) chamber of the wells and 0.5 ml containing 2×10^5 cells in the Transwell (donor chamber) and placed in the incubator. The cells were routinely monitored for adequate trans epithelial electrical resistance (TEER) using an EndOhm Tissue resistance measurement chamber (WPI). The subsequent maintenance and feeding of the cells on the Transwells was as follows: when feeding the wells, the medium was removed from the acceptor chamber (basolateral side) and donor chamber (apical side) of the Transwells. The medium was aspirated off with a pipette connected to a vacuum pump, being careful not to touch the filter. 0.5 ml of growth medium was then placed into the donor chamber and 1.5 ml of growth medium was placed into the acceptor chamber.
When the TEER values of the CACO-2 cell monolayers in Transwells was around 500 Ωcm^2 (300-800 Ωcm^2 was considered acceptable) permeability experiments were performed in triplicate as follows. All culture media was removed and acceptor and donor chambers were rinsed twice with Eagles Balance Salt Solution (EBSS) (Gibco) at 37° C. 1.5 ml EBSS was added to the acceptor chamber and 0.5 ml EBSS containing radiolabelled compound was added to the donor chamber. Cultures in Transwells were then incubated for 30 minutes at 37° C. at 200 rpm using a Labnet Vortemp. After 30 minutes, 100 μl aliquot was taken from the donor chamber and 750 μl from the acceptor chamber. These aliquots were then counted for radioactivity. The remaining EBSS was removed from the acceptor and donor chambers and then the Transwell was thoroughly rinsed three times la with EBSS. Next, the Transwell membrane (and associated cells) was removed using a scalpel and the amount of radiolabel associated with it was determined.
Permeability of compounds were determined by calculating their Papp value: Papp=ΔQ/Δt.60.A.Co (cm/sec)

[1] = Brain Uptake Index (BUI) method; assay type: in vivo
Procedure: BUI is calculated according to the following equation: [formula] BUI was performed on three animals from the same test solution for each experiment. Each compound was assayed in duplicate.

LogP and delta LogP = assay type: physicochemical
In situ brain perfusion = assay type: in vivo; parameters: unit not given here; conditions: unidirectional brain influx constant, perfusion 2-30 minutes
Capillary depletion = conditions: carotid bolus, brain removed ten seconds after injection
Procedure: Compounds that may appear to cross the blood-brain barrier may be sticking to the vasculature within the brain, rather than entering the brain parenchyma. For this reason a capillary depletion method was employed that separates the capillaries from brain homogenate.
Male Wistar rats weighing 150-250 g were deeply anaesthetised by the administration of 55 mg/kg sodium pentabarbital (Rhone-Meriaux) by intra peritoneal injection. The left common carotid artery was exposed by blunt dissection, and 100 μl of test solution injected in a single bolus into the carotid using a 30G needle and 1ml syringe (injection time ˜1 second). The injectate contained both the test/validation compound and ^14C— or ^3H-Sucrose (Amersham Biosciences) as a non-diffusable standard. Ten seconds after injection, the animal was decapitated and the brain removed. […] Pellet, supernatant and a sample of injection solution were counted on a Rackbeta Excel scintillation counter, after the addition of 10 ml Hionic Fluor scintillant (Packard). ^14C/^3H-Sucrose served to correct for vascular volume of vessels contained in the pellet, and also activity that had leaked from the vasculature into the supernatant during the homogenisation procedure.
Volumes of distribution for pellet and supernatant were calculated as shown below. Data is expressed as ratio of volume of distribution in the supernatant to pellet. […]

[2] = biological target: T1, fibrillar Beta-Amyloid Protein (BAP 1-40) (Homo sapiens, UniProt P05067); assay: Amyloid binding on SPA beads; conditions: 180 minutes at room temperature, equimolar amounts, non-specific binding subtracted
T1 construct: 25 μl BAP 1-40 (10 mg/ml, Biosource 03-138); purchased Biosource 03-138 (BAP 1-40); 03-243 (biotinylated BAP 1-40)
Procedure: The binding of Compound 1 (74 TBq/mmol) was determined compared to the ability of ^125I-beta amyloid protein 1-40 (^125I-BAP 1-40, Amersham Biosciences IM294)) to bind to amyloid 140 fibrils. Amyloid binding was essentially performed as follows.
Three fresh buffer stocks were prepared for experiments: Buffer 1, 50 mM HEPES/0.1 % Bovine Serum Albumin (BSA) pH 7.5; Buffer 2, 50 mM HEPES/0.1% BSA/400 μM ZnCl2 pH 7.5; Buffer 3, 50 mM HEPES/0.1% BSA/100 μM ZnCl2 pH 7.5.
Streptavidin coated scintillation proximity assay beads (SA-SPA beads, Amersham Biosciences) were used to immobilise fibrillar Beta-Amyloid Protein (BAP 1-40). Amyloid coated beads (SPA-BAP) were prepared by incubating 250 μl SA-SPA beads (100 mg/ml) with 250 μl Buffer 2, 425 μl Buffer 1, 50 μl biotinylated BAP 1-40 (0.5 mg/ml, Biosource 03-243), 25 μl BAP 1-40 (10 mg/ml, Biosource 03-138). Non-specific binding SPA beads (SPA-NSB) were prepared to assess the binding of compounds to SPA beads with no associated BAP 1-40 fibrils in the following incubation: 250 μl SA-SPA beads (100 mg/ml) with 250 μL Buffer 2,500 μl Buffer 1.
SPA-BAP and SPA-NSB incubations were left for 24 hours at room temperature and then spun 1.5 ml tubes (eppendorf, Merk, 306/0421/12) for 2 minutes at 1000×g. The supernatants were removed and the beads were washed twice by resuspending them in 1 ml Buffer 3 followed by centrifugation for 2 minutes at 1000×g. Finally, washed SPA-BAP and SPA-NSB beads were resuspended in 1 ml Buffer 3.
Amyloid binding of ^125I-BAP 1-40 and Compound 1 was performed in triplicate in 0.5 ml tubes (eppendorf, Merk, 306/0421/02) by adding 50 μl SPA-BAP beads to 25 μl Buffer 2 and 25 μl labelled compound (^125I-BAP 1-40 or Compound 1). Tubes were then incubated for 180 minutes at room temperature with shaking, followed by centrifugation for 2 minutes at 1000×g. The supernatants were removed and SPA-BAP pellet washed twice with 300 μl Buffer 3 containing 1% TWEEN-20 (Sigma, P7949). Non-specific binding for labelled compounds to the SPA beads was determined using incubations as described above but by substituting SPA-BAP beads with SPA-NSB beads. Radioactivity associated with the washed SPA bead pellets was then determined.
The affinity of labelled compounds for fibrillar BAP 1-40 was estimated by subtracting SPA-NSB associated counts from SPA-BAP associated counts. The binding of labelled compounds was then compared to ^125I-BAP binding, which was taken as being 100%.
In these experiments, ^125-BAP 1-40 or Compound 1 were added in equimolar amounts (between 1-5×10^−11 mmoles per incubation).

[3] = Pharmacokinetics / biodistribution; assay type: in vivo, normal male wistar rats; conditions: for percentage injected dose, Blood / percentage injected dose, Brain / percentage injected dose, Fat / percentage injected dose, Kidney / percentage injected dose, LI (large intestines) / percentage injected dose, Muscle / percentage injected dose, SI (small intestines) / percentage injected dose, Skin / percentage injected dose, Spleen / percentage injected dose, Stomach / percentage injected dose, inj site / percentage injected dose, liver / percentage injected dose, lung / percentage injected dose, thyroid / percentage injected dose, urine: tail vein
Procedure: Compound 1 IMQ1961 prepared by Amersham Biosciences 250 μCi/ml (specific activity 2000Ci/mmol) freshly diluted to give 1 μCi/0.1 ml volume injection bolus. 15 normal male wistar rats 150-180 g (Charles River).
Male wistar rats were anaethetised briefly prior to injection with Compound 1 (1 μCi, 0.1 ml bolus tail vein). Biodistributions were performed at five time points (5, 15, 30, 60 and 120 mins) in triplicate animals in which tissues from brain, blood, muscle, kidney, spleen, stomach, small intestines, large intestines and faeces, bladder and urine, fat, skin and thyroid were dissected and counted for distribution of the compound in the body in a Wallac Wizzard gamma counter.
Percentage injected dose calculations were made and plotted using the Qk pharmacokinetics program to determine t½ α, and volume of distribution (VD). Relative retention (RR) and Brain:tissue ratios were calculated as follows; [formula] [formula] Results and Discussion

T1 sequence (P05067 672-711 limits assumed): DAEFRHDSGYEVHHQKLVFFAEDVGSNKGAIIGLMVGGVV

CN1C(=O)CN=C(c2ccccc2)c2cc(Cl)ccc21 [^14C-diazapam, ^14C-diazepam]
Papp (CACO-2 cells): 24.4 ×10⁻⁶ cm/s

Cc1cc(-c2nc3cc([125I])ccc3s2)ccc1N [Compound 1, 5-[^125I]-iodo-2-(4′-amino-3′-methylphenyl)benzothiazole]
Mean BUI ([1]; carotid artery bolus, decapitated after 15 seconds, relative to 14C-Butanol): 43.6 | BBB penetration (from BUI) ([1]; cut off low/medium 20%): medium to high BBB penetration | LogP (LogP and delta LogP): 1.75 | ΔLogP (LogP and delta LogP): −0.38 | Kin (In situ brain perfusion): 49.8 | Ratio of VD supernatant/pellet (Capillary depletion): 7.2 | Amyloid binding (% of 125I-BAP 1-40) [2]: 27% | Papp (CACO-2 cells): 13.7 ×10⁻⁶ cm/s | t½ (α) of clearance from brain ([3]; 1 μCi tail vein bolus): 12.4 min | relative retention, blood ([3]; 5 minutes): 1.04 | relative retention, brain ([3]; 5 minutes): 1.01 | thyroid uptake ([3]; over two hour experiment, indicates in vivo stability to deiodination): < 1% | Clearance through the body ([3]; rat, in vivo): largely via the hepatobiliary system | percentage injected dose, Blood ([3]; 5 min): 6.05 % ID | percentage injected dose, Brain ([3]; 5 min): 0.94 % ID | percentage injected dose, Fat ([3]; 5 min): 30.82 % ID | percentage injected dose, Kidney ([3]; 5 min): 3.14 % ID | percentage injected dose, LI (large intestines) ([3]; 5 min): 1.53 % ID | percentage injected dose, Muscle ([3]; 5 min): 21.49 % ID | percentage injected dose, SI (small intestines) ([3]; 5 min): 9.04 % ID | percentage injected dose, Skin ([3]; 5 min): 8.92 % ID | percentage injected dose, Spleen ([3]; 5 min): 0.69 % ID | percentage injected dose, Stomach ([3]; 5 min): 1.82 % ID | percentage injected dose, inj site ([3]; 5 min): 2.12 % ID | percentage injected dose, liver ([3]; 5 min): 19.47 % ID | percentage injected dose, lung ([3]; 5 min): 1.40 % ID | percentage injected dose, thyroid ([3]; 5 min): 0.16 % ID | percentage injected dose, urine ([3]; 5 min): 0.04 % ID | percentage injected dose, Blood ([3]; 15 min): 4.14 % ID | percentage injected dose, Brain ([3]; 15 min): 0.75 % ID | percentage injected dose, Fat ([3]; 15 min): 36.31 % ID | percentage injected dose, Kidney ([3]; 15 min): 1.60 % ID | percentage injected dose, LI (large intestines) ([3]; 15 min): 1.77 % ID | percentage injected dose, Muscle ([3]; 15 min): 19.83 % ID | percentage injected dose, SI (small intestines) ([3]; 15 min): 12.60 % ID | percentage injected dose, Skin ([3]; 15 min): 12.80 % ID | percentage injected dose, Spleen ([3]; 15 min): 0.32 % ID | percentage injected dose, Stomach ([3]; 15 min): 2.56 % ID | percentage injected dose, inj site ([3]; 15 min): 1.86 % ID | percentage injected dose, liver ([3]; 15 min): 7.48 % ID | percentage injected dose, lung ([3]; 15 min): 0.49 % ID | percentage injected dose, thyroid ([3]; 15 min): 0.16 % ID | percentage injected dose, urine ([3]; 15 min): 2.10 % ID | percentage injected dose, Blood ([3]; 30 min): 3.58 % ID | percentage injected dose, Brain ([3]; 30 min): 0.49 % ID | percentage injected dose, Fat ([3]; 30 min): 59.02 % ID | percentage injected dose, Kidney ([3]; 30 min): 0.95 % ID | percentage injected dose, LI (large intestines) ([3]; 30 min): 1.90 % ID | percentage injected dose, Muscle ([3]; 30 min): 12.59 % ID | percentage injected dose, SI (small intestines) ([3]; 30 min): 21.93 % ID | percentage injected dose, Skin ([3]; 30 min): 16.90 % ID | percentage injected dose, Spleen ([3]; 30 min): 0.19 % ID | percentage injected dose, Stomach ([3]; 30 min): 6.66 % ID | percentage injected dose, inj site ([3]; 30 min): 3.05 % ID | percentage injected dose, liver ([3]; 30 min): 4.46 % ID | percentage injected dose, lung ([3]; 30 min): 0.48 % ID | percentage injected dose, thyroid ([3]; 30 min): 0.39 % ID | percentage injected dose, urine ([3]; 30 min): 1.63 % ID | percentage injected dose, Blood ([3]; 60 min): 2.77 % ID | percentage injected dose, Brain ([3]; 60 min): 0.29 % ID | percentage injected dose, Fat ([3]; 60 min): 73.92 % ID | percentage injected dose, Kidney ([3]; 60 min): 0.63 % ID | percentage injected dose, LI (large intestines) ([3]; 60 min): 7.75 % ID | percentage injected dose, Muscle ([3]; 60 min): 7.79 % ID | percentage injected dose, SI (small intestines) ([3]; 60 min): 28.42 % ID | percentage injected dose, Skin ([3]; 60 min): 17.14 % ID | percentage injected dose, Spleen ([3]; 60 min): 0.15 % ID | percentage injected dose, Stomach ([3]; 60 min): 8.98 % ID | percentage injected dose, inj site ([3]; 60 min): 1.83 % ID | percentage injected dose, liver ([3]; 60 min): 3.12 % ID | percentage injected dose, lung ([3]; 60 min): 0.34 % ID | percentage injected dose, thyroid ([3]; 60 min): 0.17 % ID | percentage injected dose, urine ([3]; 60 min): 8.39 % ID | percentage injected dose, Blood ([3]; 120 min): 2.27 % ID | percentage injected dose, Brain ([3]; 120 min): 0.18 % ID | percentage injected dose, Fat ([3]; 120 min): 55.62 % ID | percentage injected dose, Kidney ([3]; 120 min): 0.45 % ID | percentage injected dose, LI (large intestines) ([3]; 120 min): 3.12 % ID | percentage injected dose, Muscle ([3]; 120 min): 5.60 % ID | percentage injected dose, SI (small intestines) ([3]; 120 min): 26.86 % ID | percentage injected dose, Skin ([3]; 120 min): 12.89 % ID | percentage injected dose, Spleen ([3]; 120 min): 0.08 % ID | percentage injected dose, Stomach ([3]; 120 min): 9.29 % ID | percentage injected dose, inj site ([3]; 120 min): 2.62 % ID | percentage injected dose, liver ([3]; 120 min): 2.39 % ID | percentage injected dose, lung ([3]; 120 min): 0.23 % ID | percentage injected dose, thyroid ([3]; 120 min): 0.95 % ID | percentage injected dose, urine ([3]; 120 min): 10.02 % ID

O=C[C@H](O)[C@@H](O)[C@H](O)[C@H](O)CO [^14C-Glucose, ^14C-glucose]
Papp (CACO-2 cells): 57.9 ×10⁻⁶ cm/s

OCC(O)C(O)C(O)C(O)[14CH2]O (stereo not shown) [^14C-mannitol]
Papp (CACO-2 cells): 3.63 ×10⁻⁶ cm/s

Source: US20050123477A1, “Benzothiazole derivatives for in vivo imaging of amloid plaques” (priority 2002, published 2005)
